The source of these data is ChEMBL document CHEMBL1208751 (Bioorg Med Chem Lett, 2010).

SMILES strings stand for the structures. Converted amounts (≈) assume the structure as drawn.

This series in a line: Solubility of the compound at pH 6.8. It counts as physicochemical. The conditions noted are these: buffer.

For the compound `CC(C)CC1n2cncc2CN(Cc2ccc(F)cc2)S1(=O)=O` (configuration not stated), the solubility is less than 0.5 µM. Turning to `C[C@@H](c1ccc(Cl)cc1)N1Cc2cncn2C(CC(C)(C)O)S1(=O)=O` (some centres not stated), the concentration in solution (solubility) came to 500 µM (≈ 192 µg/mL).
